Measured values reported in PubChem BioAssay AID602165 (The Scripps Research Institute Molecular Screening Center, 2012).

Molecular target: Induced myeloid leukemia cell differentiation protein Mcl-1 (Homo sapiens) (UniProt Q07820)
Assay: MCL1 binding to BIM-BH3 peptide, inhibitors, late-stage follow-up, biochemical, fluorescence polarization, assay provider data, round 3 (AID 602165)
Details: GST-MCL1 / FITC-BIM-BH3 peptide fluorescence polarization;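 active means compounds whose IC50 for blocking MCL1 binding of the BIM peptide is 10 micromolar or lower; inactive means IC50 above 10 micromolar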

Sequence of Induced myeloid leukemia cell differentiation protein Mcl-1 (Homo sapiens) (Q07820 whole entry, looked up): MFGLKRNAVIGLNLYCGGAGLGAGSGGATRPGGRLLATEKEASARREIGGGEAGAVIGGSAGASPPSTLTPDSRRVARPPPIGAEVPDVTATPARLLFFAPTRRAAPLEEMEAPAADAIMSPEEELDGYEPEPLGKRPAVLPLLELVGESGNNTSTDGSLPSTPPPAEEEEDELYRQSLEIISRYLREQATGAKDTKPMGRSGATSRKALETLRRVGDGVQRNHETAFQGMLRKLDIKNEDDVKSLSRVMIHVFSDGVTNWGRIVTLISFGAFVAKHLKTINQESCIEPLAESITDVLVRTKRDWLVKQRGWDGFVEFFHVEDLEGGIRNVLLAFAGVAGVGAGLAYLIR

IC50, active:
CCN1CCN(C(c2cccs2)c2ccc3cccnc3c2O)CC1 (stereo not drawn) 1600 nM
CN1CCN(C(c2ccc(F)cc2)c2ccc3cccnc3c2O)CC1 (stereo not drawn) 600 nM
Oc1c(C(c2cccs2)N2CCN(c3ccccn3)CC2)ccc2cccnc12 (stereo not drawn) 500 nM
Oc1c(C(c2cccs2)N2CCCCC2)ccc2cccnc12 (stereo not drawn) 2500 nM
CC(C)Oc1ccc(C(Nc2ccccn2)c2ccc3cccnc3c2O)cc1 (stereo not drawn) 1300 nM
OCCN1CCN(C(c2cccs2)c2ccc3cccnc3c2O)CC1 (stereo not drawn) 3300 nM
Cc1ccnc(NC(c2cccs2)c2ccc3cccnc3c2O)c1 (stereo not drawn) 400 nM
Oc1c(C(Nc2ccccn2)c2cccs2)ccc2cccnc12 (stereo not drawn) 600 nM
